In US5886051A, “Methods and compositions for the treatment of neurodegeneration” (University Of Florida Research Foundation, Inc., priority 1995, dated 1999):

System: N-methyl-D-aspartate receptor complex
Assay: [3H]MK-801 binding to rat cortical membranes with excess L-glutamate and glycine, modulated by polyamines
Details: for concentration above which the polyamine is antagonistic: piperidine polyamines, tested 0.05-1,000 μM; for effect on [3H]MK-801 binding: at 100 μm; for [3H]MK-801 binding relative to "100% Control": 100 μM L-Glu, 100 μM Gly, 2 nM [3H]MK-801, mean ± SD
Description: Data are plotted as means ±standard deviation for four separate experiments on each tetraamine: (--.tangle-solidup.--) SPM (n=4), (.largecircle.) DMNSPM (n=4), (.circle-solid.) DMHSPM (n=4), (.rect-hollow.) DENSPM (n=4), (.box-solid.) DEHSPM (N=4), (.increment.) DBHSPM (n=4) and (--.tangle-solidup.--) BAHSPM (n=4).
Cerebral cortices from young male Sprague-Dawley rats (200-300 g) were homogenized with 10 volumes of ice-cold 0.32M sucrose using a motor-driven glass/Teflon homogenizer. The homogenate was centrifuged at 1,000 g for 10 minutes. The 1,000 g pellet was re-suspended in buffer A (5 mM Tris-HCl, pH 7.7 at 4° C.) and centrifuged at 8,000 g for 20 minutes. The supernatant and upper buffy coat of the pellet were combined and centrifuged at 50,000 g for 20 minutes. The pellet was then re-suspended in 10 volumes of buffer A and homogenized using high-intensity ultrasound and centrifuged at 50,000 g, discarding the supernatant. The pellet was washed in this manner an additional three times and stored as a frozen suspension at […] for at least 18 hours, but no longer than two weeks, before use.
For binding experiments, frozen membranes were thawed, pelleted at 50,000 g for 20 minutes and washed as described above, except that 20 volumes of buffer A were used for re-suspension, for a total of five times. The final pellet was re-suspended in buffer B (5 mM Tris-HCl, pH 7.5 at 23° C.).
Binding assays were performed in triplicate at 23° C. for 1 hour and were terminated by filtration through Whatman GF/B glass fiber filters followed by three 5.0 ml rinses of ice-cold buffer B using a Brandel M-48 cell harvester.

Structure (SMILES) | [3H]MK-801 binding relative to "100% Control" (1 μM tetraamine) [%] | [3H]MK-801 binding relative to "100% Control" (10 μM tetraamine) [%] | further results
C(CCNCC1CCNCC1)CNCC1CCNCC1 [PIP[4,4,4], N,N'-1,4-Butanediylbis(4-piperidinemethanamine)] |  |  | concentration above which the polyamine is antagonistic: above 12 μm
C(CCNC1CCNCC1)CNC1CCNCC1 [PIP[3,4,3]] |  |  | effect on [3H]MK-801 binding: agonistic
CC(C)(C)NCCCCNCCCCNCCCCNC(C)(C)C [DBHSPM] | 106.5±8.0 | 33.0±4.0 | 
CNCCCCNCCCCNCCCCNC [DMHSPM] | 117.8±8.1 | 76.3±7.0 | 
CNCCCNCCCNCCCNC [DMNSPM] | 120.6±3.1 | 87.9±6.0 | 
CCNCCCCNCCCCNCCCCNCC [DEHSPM, diethylhomospermine] | 114.3±4.5 | 53.9±6.0 | 
Cl.Cl.Cl.Cl.NCCCNCCCCNCCCN [SPM, Spermine tetrahydrochloride, reference compound] | 123.2±5.0 |  | [3H]MK-801 binding relative to "100% Control" (500 μM tetraamine): 82.0±8.1%; [3H]MK-801 binding relative to "100% Control" (1,000 μM tetraamine, 1000 µM): 78.9±8.3%; effect on [3H]MK-801 binding relative to "100% Control" (at 500 and 1,000 μM): moderate antagonism
CCNCCCNCCCNCCCNCC [DENSPM] | 113.7±5.9 | 63.7±5.9 | 
C(CCNCCC1CCNCC1)CNCCC1CCNCC1 [PIP[5,4,5], N,N'-1,4-Butanediylbis(4-piperidineethanamine)] |  |  | concentration above which the polyamine is antagonistic: above 13 μm
C(CNC1CCNCC1)CNC1CCNCC1 [PIP[3,3,3]] |  |  | effect on [3H]MK-801 binding: still agonistic
